Measurements as given in the NIST ThermoML archive (doi:10.1021/je5007407).
Values joined by “and” are separate entries in the source; they are usually repeats but may differ in a detail not shown here. Identical values can stand only once.

Assay: xn = mol fraction of the nth substance listed
Conditions: Gas, Frequency=2 MHz, Pulse-echo method

CCC [propane] + O=C=O
Conditions | speed of sound
298.18 K, 100010 kPa, x2 = 0.9376 | 1076.7 m/s
298.18 K, 125020 kPa, x2 = 0.9376 | 1162.3 m/s
298.18 K, 149960 kPa, x2 = 0.9376 | 1236.7 m/s
298.18 K, 175000 kPa, x2 = 0.9376 | 1302.7 m/s
298.18 K, 200100 kPa, x2 = 0.9376 | 1364.5 m/s
323.09 K, 24930 kPa, x2 = 0.9683 | 534.6 m/s
323.09 K, 24940 kPa, x2 = 0.9683 | 534.8 m/s
323.09 K, 50140 kPa, x2 = 0.9683 | 752.6 m/s
323.09 K, 75000 kPa, x2 = 0.9683 | 890.2 m/s
323.09 K, 75070 kPa, x2 = 0.9683 | 897.6 m/s
323.09 K, 100590 kPa, x2 = 0.9683 | 1000.1 m/s
323.09 K, 125560 kPa, x2 = 0.9683 | 1088.7 m/s
323.09 K, 149970 kPa, x2 = 0.9683 | 1164.3 m/s
323.09 K, 175330 kPa, x2 = 0.9683 | 1234.8 m/s
323.09 K, 200000 kPa, x2 = 0.9683 | 1296.5 m/s
323.1 K, 30220 kPa, x2 = 0.9907 | 590.1 m/s
323.1 K, 30230 kPa, x2 = 0.9907 | 589.8 m/s
323.1 K, 49980 kPa, x2 = 0.9907 | 747 m/s
323.1 K, 75170 kPa, x2 = 0.9907 | 886.1 m/s
323.1 K, 100210 kPa, x2 = 0.9907 | 992.6 m/s
323.1 K, 124810 kPa, x2 = 0.9907 | 1080.5 m/s
323.1 K, 149980 kPa, x2 = 0.9907 | 1157.2 m/s
323.1 K, 174620 kPa, x2 = 0.9907 | 1224.1 m/s
323.1 K, 200340 kPa, x2 = 0.9907 | 1288.4 m/s
323.13 K, 50000 kPa, x2 = 0.9981 | 745.6 m/s
323.13 K, 50020 kPa, x2 = 0.9981 | 745.8 m/s
323.13 K, 75120 kPa, x2 = 0.9981 | 883.4 m/s
323.13 K, 100030 kPa, x2 = 0.9981 | 988.9 m/s
323.13 K, 124980 kPa, x2 = 0.9981 | 1076.8 m/s
323.13 K, 150000 kPa, x2 = 0.9981 | 1153.2 m/s
323.13 K, 175020 kPa, x2 = 0.9981 | 1220.9 m/s
323.13 K, 200000 kPa, x2 = 0.9981 | 1282.1 m/s
323.19 K, 15120 kPa, x2 = 0.9376 | 381.2 m/s
323.19 K, 15160 kPa, x2 = 0.9376 | 381.4 m/s
323.19 K, 25000 kPa, x2 = 0.9376 | 541.2 m/s
323.19 K, 50090 kPa, x2 = 0.9376 | 758.5 m/s
323.19 K, 75070 kPa, x2 = 0.9376 | 897.6 m/s
323.19 K, 100040 kPa, x2 = 0.9376 | 1005.2 m/s
323.19 K, 125050 kPa, x2 = 0.9376 | 1095.7 m/s
323.19 K, 150020 kPa, x2 = 0.9376 | 1173.9 m/s
323.19 K, 175000 kPa, x2 = 0.9376 | 1243.4 m/s
323.19 K, 200420 kPa, x2 = 0.9376 | 1307.5 m/s
348.09 K, 30390 kPa, x2 = 0.9683 | 504.8 m/s
348.09 K, 30400 kPa, x2 = 0.9683 | 504.8 m/s
348.09 K, 49950 kPa, x2 = 0.9981 | 667.1 m/s and 667.2 m/s
348.09 K, 50030 kPa, x2 = 0.9683 | 675.2 m/s
348.09 K, 50360 kPa, x2 = 0.9907 | 672.7 m/s
348.09 K, 50370 kPa, x2 = 0.9907 | 672.7 m/s
348.09 K, 75020 kPa, x2 = 0.9981 | 813.6 m/s
348.09 K, 75080 kPa, x2 = 0.9907 | 816.9 m/s
348.09 K, 75220 kPa, x2 = 0.9683 | 823 m/s
348.09 K, 99980 kPa, x2 = 0.9981 | 924.6 m/s
348.09 K, 100580 kPa, x2 = 0.9907 | 931.1 m/s
348.09 K, 100600 kPa, x2 = 0.9683 | 937.3 m/s
348.09 K, 124980 kPa, x2 = 0.9981 | 1016.6 m/s
348.09 K, 125530 kPa, x2 = 0.9683 | 1029 m/s
348.09 K, 125700 kPa, x2 = 0.9907 | 1023.2 m/s
348.09 K, 149990 kPa, x2 = 0.9981 | 1095.6 m/s
348.09 K, 150440 kPa, x2 = 0.9683 | 1109.4 m/s
348.09 K, 150600 kPa, x2 = 0.9907 | 1101.4 m/s
348.09 K, 174720 kPa, x2 = 0.9683 | 1178.6 m/s
348.09 K, 175000 kPa, x2 = 0.9981 | 1165.6 m/s
348.09 K, 175290 kPa, x2 = 0.9907 | 1171.4 m/s
348.09 K, 200000 kPa, x2 = 0.9981 | 1228.6 m/s
348.09 K, 200040 kPa, x2 = 0.9683 | 1243.8 m/s
348.09 K, 200720 kPa, x2 = 0.9907 | 1236.7 m/s
348.18 K, 25040 kPa, x2 = 0.9376 | 446.6 m/s
348.18 K, 25050 kPa, x2 = 0.9376 | 446.8 m/s
348.18 K, 50050 kPa, x2 = 0.9376 | 682.3 m/s
348.18 K, 75100 kPa, x2 = 0.9376 | 830.6 m/s
348.18 K, 100100 kPa, x2 = 0.9376 | 943.7 m/s
348.18 K, 125020 kPa, x2 = 0.9376 | 1037.1 m/s
348.18 K, 149940 kPa, x2 = 0.9376 | 1117.7 m/s
348.18 K, 174970 kPa, x2 = 0.9376 | 1189.8 m/s
348.18 K, 200000 kPa, x2 = 0.9376 | 1254.3 m/s
373.1 K, 74950 kPa, x2 = 0.9981 | 754.4 m/s
373.1 K, 74970 kPa, x2 = 0.9981 | 754.7 m/s
373.1 K, 100020 kPa, x2 = 0.9981 | 869.7 m/s
373.1 K, 125030 kPa, x2 = 0.9981 | 963.9 m/s
373.1 K, 150000 kPa, x2 = 0.9981 | 1044.4 m/s
373.1 K, 175000 kPa, x2 = 0.9981 | 1115.5 m/s
373.1 K, 200000 kPa, x2 = 0.9981 | 1179.3 m/s
373.12 K, 25050 kPa, x2 = 0.9376 | 384.7 m/s
373.12 K, 25060 kPa, x2 = 0.9376 | 385 m/s
373.12 K, 35140 kPa, x2 = 0.9683 | 488.3 m/s
373.12 K, 35170 kPa, x2 = 0.9683 | 488.8 m/s
373.12 K, 49890 kPa, x2 = 0.9376 | 618.8 m/s
373.12 K, 49950 kPa, x2 = 0.9683 | 611.6 m/s
373.12 K, 75070 kPa, x2 = 0.9683 | 764.5 m/s
373.12 K, 75090 kPa, x2 = 0.9376 | 772.6 m/s
373.12 K, 100000 kPa, x2 = 0.9376 | 889.4 m/s
373.12 K, 100300 kPa, x2 = 0.9683 | 881.3 m/s
373.12 K, 124970 kPa, x2 = 0.9376 | 985.6 m/s
373.12 K, 125160 kPa, x2 = 0.9683 | 976.5 m/s
373.12 K, 149930 kPa, x2 = 0.9376 | 1069 m/s
373.12 K, 150000 kPa, x2 = 0.9683 | 1057.9 m/s
373.12 K, 174970 kPa, x2 = 0.9376 | 1141.6 m/s
373.12 K, 175220 kPa, x2 = 0.9683 | 1131.5 m/s
373.12 K, 200010 kPa, x2 = 0.9683 | 1196.4 m/s
373.12 K, 200030 kPa, x2 = 0.9376 | 1208.7 m/s
373.13 K, 50050 kPa, x2 = 0.9907 | 607.3 m/s
373.13 K, 50070 kPa, x2 = 0.9907 | 607.5 m/s
373.13 K, 76000 kPa, x2 = 0.9907 | 763.8 m/s
373.13 K, 100270 kPa, x2 = 0.9907 | 874.4 m/s
373.13 K, 125410 kPa, x2 = 0.9907 | 970.3 m/s
373.13 K, 150430 kPa, x2 = 0.9907 | 1051.5 m/s
373.13 K, 174660 kPa, x2 = 0.9907 | 1121.2 m/s
373.13 K, 200020 kPa, x2 = 0.9907 | 1188.3 m/s
